Laboratory results reported in patent publication US11267795B2, “Crystalline PPAR-delta agonist” (Reneo Pharmaceuticals, Inc., priority 2020, dated 2022).

Columns and labels:
[1] = tested on: PPARS regulated genes (CPT1b, PGC-1α) in mice muscle; test: In vivo expression of PPARδ regulated genes in mice muscle
LXRP = biological target: T1, LXRP (Homo sapiens, UniProt P55055); test: Nuclear receptor activation in human cells expressing the receptor; type: cell-based
T1 sequence (P55055 1-460): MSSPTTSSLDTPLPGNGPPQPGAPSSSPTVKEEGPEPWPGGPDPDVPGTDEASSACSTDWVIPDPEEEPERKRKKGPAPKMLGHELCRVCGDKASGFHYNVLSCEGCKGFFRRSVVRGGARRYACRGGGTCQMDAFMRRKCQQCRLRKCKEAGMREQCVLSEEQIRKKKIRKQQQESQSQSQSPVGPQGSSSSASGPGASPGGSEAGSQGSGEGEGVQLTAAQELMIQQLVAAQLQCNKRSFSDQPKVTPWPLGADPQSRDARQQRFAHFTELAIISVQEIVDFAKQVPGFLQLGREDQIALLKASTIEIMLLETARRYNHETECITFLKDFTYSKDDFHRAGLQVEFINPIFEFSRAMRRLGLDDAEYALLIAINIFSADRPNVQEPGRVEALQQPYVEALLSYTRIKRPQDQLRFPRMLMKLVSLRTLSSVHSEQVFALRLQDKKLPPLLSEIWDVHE

LXRα = biological target: T2, LXRα (Homo sapiens, UniProt Q13133); test: as above; type: cell-based
T2 sequence (Q13133 1-447): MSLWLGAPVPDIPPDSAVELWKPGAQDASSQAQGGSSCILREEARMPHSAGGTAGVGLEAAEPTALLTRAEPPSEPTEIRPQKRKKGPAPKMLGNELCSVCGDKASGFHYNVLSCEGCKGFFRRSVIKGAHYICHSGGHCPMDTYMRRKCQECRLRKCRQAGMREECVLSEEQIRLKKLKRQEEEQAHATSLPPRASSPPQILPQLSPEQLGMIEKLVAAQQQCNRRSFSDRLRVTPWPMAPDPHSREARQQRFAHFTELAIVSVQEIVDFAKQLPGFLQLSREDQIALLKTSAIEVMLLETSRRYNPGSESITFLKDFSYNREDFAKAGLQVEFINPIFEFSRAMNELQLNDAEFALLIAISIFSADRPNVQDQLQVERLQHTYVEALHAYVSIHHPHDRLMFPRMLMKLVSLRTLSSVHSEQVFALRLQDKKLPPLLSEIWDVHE

PPARδ = biological target: T3, PPARδ (Homo sapiens, UniProt Q03181); test: PPAR agonist activity in human cell lines expressing the three PPAR isotypes; type: cell-based
T3 sequence (Q03181 1-441): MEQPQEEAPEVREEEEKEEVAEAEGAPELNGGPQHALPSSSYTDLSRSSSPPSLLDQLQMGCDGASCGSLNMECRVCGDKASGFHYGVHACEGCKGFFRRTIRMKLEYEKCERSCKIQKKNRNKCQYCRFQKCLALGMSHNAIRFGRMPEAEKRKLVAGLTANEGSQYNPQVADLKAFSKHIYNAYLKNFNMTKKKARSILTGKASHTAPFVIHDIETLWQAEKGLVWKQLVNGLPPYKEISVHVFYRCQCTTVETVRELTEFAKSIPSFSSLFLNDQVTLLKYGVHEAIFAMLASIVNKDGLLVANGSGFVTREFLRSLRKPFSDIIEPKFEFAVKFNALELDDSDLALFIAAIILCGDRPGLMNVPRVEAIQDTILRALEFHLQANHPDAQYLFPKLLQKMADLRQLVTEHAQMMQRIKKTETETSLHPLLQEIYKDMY
Procedure: (§1) Compound I is a PPARS agonist that is useful in the methods of treatment described herein. In human cell lines expressing the three peroxisome proliferator-activated receptor (PPAR) isotypes, Compound I is a potent (EC50<100 nM) and selective human PPARS agonist (PPARα (EC50>10 μM) and PPARγ (EC50>10 μM)).

PPARγ = biological target: T4, PPARγ (Homo sapiens, UniProt P37231); test: as above; type: cell-based
T4 sequence (P37231 1-505): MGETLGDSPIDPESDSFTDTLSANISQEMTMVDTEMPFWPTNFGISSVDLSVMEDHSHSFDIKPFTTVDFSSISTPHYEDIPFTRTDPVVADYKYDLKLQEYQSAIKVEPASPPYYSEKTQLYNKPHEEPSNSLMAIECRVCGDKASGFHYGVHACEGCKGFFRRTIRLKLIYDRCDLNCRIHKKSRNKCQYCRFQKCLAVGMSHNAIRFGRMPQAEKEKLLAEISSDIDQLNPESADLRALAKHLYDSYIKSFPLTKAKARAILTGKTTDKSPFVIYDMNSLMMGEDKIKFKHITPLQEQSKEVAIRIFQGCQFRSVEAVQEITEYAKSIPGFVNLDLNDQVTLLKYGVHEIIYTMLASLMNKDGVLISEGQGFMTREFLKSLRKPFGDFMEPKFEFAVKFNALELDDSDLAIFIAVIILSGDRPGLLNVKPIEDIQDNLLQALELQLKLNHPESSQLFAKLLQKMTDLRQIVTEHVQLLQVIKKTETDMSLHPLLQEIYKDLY
Procedure: as §1

PPARα = biological target: T5, PPARα (Homo sapiens, UniProt Q07869); test: as above; type: cell-based
T5 sequence (Q07869 1-468): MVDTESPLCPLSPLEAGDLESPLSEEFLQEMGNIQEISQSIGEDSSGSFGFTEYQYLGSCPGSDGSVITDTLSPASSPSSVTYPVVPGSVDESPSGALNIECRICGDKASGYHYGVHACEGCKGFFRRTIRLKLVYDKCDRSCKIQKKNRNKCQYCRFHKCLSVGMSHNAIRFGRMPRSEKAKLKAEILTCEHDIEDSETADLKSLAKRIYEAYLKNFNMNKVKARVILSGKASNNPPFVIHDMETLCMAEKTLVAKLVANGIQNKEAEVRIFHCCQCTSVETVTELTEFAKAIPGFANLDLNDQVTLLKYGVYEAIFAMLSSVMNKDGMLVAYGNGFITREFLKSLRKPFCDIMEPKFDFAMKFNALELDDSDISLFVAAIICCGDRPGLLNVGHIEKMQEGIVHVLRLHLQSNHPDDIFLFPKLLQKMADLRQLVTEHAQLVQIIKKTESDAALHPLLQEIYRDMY
Procedure: as §1

RXR = test: Nuclear receptor activation in human cells expressing the receptor; type: cell-based
[2] = tested on: Angiopoietin-like 4 (ANGPTL4); test: In vivo expression of PPAR target gene in rat muscle
FXR = biological target: T6, FXR (Homo sapiens, UniProt Q96RI1); test: Nuclear receptor activation in human cells expressing the receptor; type: cell-based
T6 sequence (Q96RI1 1-486): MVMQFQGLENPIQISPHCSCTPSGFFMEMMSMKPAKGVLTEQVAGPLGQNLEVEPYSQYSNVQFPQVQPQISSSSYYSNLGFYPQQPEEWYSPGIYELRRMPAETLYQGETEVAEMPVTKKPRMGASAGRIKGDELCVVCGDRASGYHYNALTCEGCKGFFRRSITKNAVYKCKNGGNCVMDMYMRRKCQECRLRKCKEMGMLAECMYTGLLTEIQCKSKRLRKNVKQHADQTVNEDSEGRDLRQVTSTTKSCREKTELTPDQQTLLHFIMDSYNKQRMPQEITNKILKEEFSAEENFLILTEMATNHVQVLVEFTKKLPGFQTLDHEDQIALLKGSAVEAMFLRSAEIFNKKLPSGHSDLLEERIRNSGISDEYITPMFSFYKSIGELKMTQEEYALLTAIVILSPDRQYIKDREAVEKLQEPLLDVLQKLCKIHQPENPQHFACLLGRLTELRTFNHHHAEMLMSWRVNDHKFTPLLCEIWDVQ

[3] = human cell lines expressing the PPAR isotypes

activation of nuclear receptor LXRP (LXRP): has not resulted in activation | activation of nuclear receptor LXRα (LXRα): has not resulted in activation | type of agonism at PPARδ (PPARδ): full PPARS agonist | EC50 (PPARδ; [3]): < 0.1 µM | type of agonism at PPARγ (PPARγ): partial agonist | EC50 (PPARγ; [3]): > 10 µM | type of agonism at PPARα (PPARα): partial agonist | EC50 (PPARα; [3]): > 10 µM | activation of nuclear receptor FXR (FXR): has not resulted in activation
Compound: Cc1cc(OC/C=C(/c2ccc(F)cc2)c2ccc(C#CCN3CCOCC3)cc2)ccc1OCC(=O)O [Compound I, (E)-2-(4-((3-(4-fluorophenyl)-3-(4-(3-morpholinoprop-1-yn-1-yl)phenyl)allyl)oxy)-2-methylphenoxy)acetic acid]
expression of PPARδ regulated genes (CPT1b, PGC-1α) [1]: altered the expression patterns | activation of nuclear receptor RXR (RXR): has not resulted in activation | expression of Angiopoietin-like 4 (ANGPTL4) [2]: increased the expression
